Experimental data reported in patent US6653478B2, “Substituted benzimidazol-2-ones as vasopressin receptor antagonists and neuropeptide Y modulators” (Ortho-McNeil Pharmaceutical, Inc., priority 2000, dated 2003).

Columns and labels:
human V2 receptor = human V2 receptor (Homo sapiens, UniProt P30518); assay: V2 binding assay (3H-AVP displacement, HEK-293 membranes); design: expressed in transfected cells; host or cells: HEK-293 (membranes); conditions: 1.0 μM compound; read-out: V2@1.0, % Inh
How it was run: (§1)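 Membranes competed against 3H-AVP (40-87 Ci/mmol, 10,000 cpm/well) in 50 mM Tris, 5 mM MgCl2, 0.1% BSA, pH 7.5, with protease inhibitors. Incubated 1 hour at room temperature, then filtered on PEI-presoaked GF/C and scintillation counted. Non-specific binding defined with 1.25 μM AVP.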

NPY2 receptors = biological target: T1, NPY2 receptors (Homo sapiens, UniProt P49146); assay: Neuropeptide Y receptor binding assay (125I-PYY, KAN-TS cell membranes); conditions: 10 μM compound; read-out: NPY-2@10, % Inh
T1 construct: Cell Membranes from KAN-TS cells having NPY2 receptors; endogenous in cells; host or cells: KAN-TS cells (membranes)
T1 sequence (P49146 1-381): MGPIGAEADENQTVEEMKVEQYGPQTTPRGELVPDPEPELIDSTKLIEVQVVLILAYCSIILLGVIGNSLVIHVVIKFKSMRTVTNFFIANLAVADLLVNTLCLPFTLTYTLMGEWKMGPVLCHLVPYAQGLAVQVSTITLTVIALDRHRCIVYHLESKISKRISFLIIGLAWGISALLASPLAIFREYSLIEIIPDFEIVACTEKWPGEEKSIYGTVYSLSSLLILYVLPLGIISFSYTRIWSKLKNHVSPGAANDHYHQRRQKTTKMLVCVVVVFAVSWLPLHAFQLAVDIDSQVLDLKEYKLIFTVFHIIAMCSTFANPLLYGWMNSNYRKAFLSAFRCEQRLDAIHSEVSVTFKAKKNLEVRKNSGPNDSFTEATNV
Experimental: Neuropeptide Y Receptor Binding Assay
Load 96-well RIA racks with RIA vials (Sarstedt, cat. #73.1055)
Prepare membranes—use 2×15 cm confluent plates/96-well assay plate
Add 14 mls Homogenization buffer/cell pellet
Homogenize at high speed for 15 seconds
Transfer to 15 ml conical tube and spin 5′ at 4° C. at setting 3 in RT6000 centrifuge
Transfer supernatant to 30 ml Corex tube
Balance and spin 25′ at 15,000 rpm at 4° C.
Resuspend pellet in 10 mls Binding buffer
Homogenize at high speed for 15 sec.
Bring volume up to 50 mls in Binding buffer (25 mls/2×96-well plates)
Keep on ice until use or freeze in aliquots (2 plates/tube) in −70° C.
Prepare ^125I-PYY (for 2×96-well compound plates)
Dilute 50 uCi ^125I-PYY in 1 ml H2O
Add 0.4 ml 10% BSA to 20 ml Binding buffer
Add 150 μl ^125I-PYY, mix well
NSB (1 μM PYY final conc.): 40 μl PYY (100 μM stock)+60 μl 30% DMSO in HEPES=40 μM PYY—add 5 μl/well
Total Binding: Add 5 μl/well of Compound Diluent
Add 5 μl compound (final conc. @10 μM)
Incubate at R.T. for 1 hr.
Spin plates for 10′ at setting 9 in RT6000 centrifuge
Aspirate supernatant from tubes, add 300 μl PBS and aspirate again.
After plates are washed and aspirated, put individual tubes in 12×75 mm polypropylene carrier tubes. Count on gamma counter.

human V1a receptor = human V1a receptor (Homo sapiens, UniProt P37288); assay: V1a binding assay (3H-AVP displacement, HEK-293 membranes); design: expressed in transfected cells; host or cells: HEK-293 (membranes); conditions: for inhibition at 1 µM: 1.0 μM compound, read-out: V1a@1.0, % Inh
How it was run: as §1

human V1b receptor = biological target: T2, human V1b receptor (Homo sapiens, UniProt P47901); assay: V1b binding assay (3H-AVP displacement, HEK-293 membranes); design: expressed in transfected cells; host or cells: HEK-293 (membranes); conditions: for inhibition at 10 µM: 10 μM compound, read-out: V1b % Inh @10; for inhibition at 1 µM: 1.0 μM compound, read-out: V1b@1.0, % Inh
T2 sequence (P47901 1-424): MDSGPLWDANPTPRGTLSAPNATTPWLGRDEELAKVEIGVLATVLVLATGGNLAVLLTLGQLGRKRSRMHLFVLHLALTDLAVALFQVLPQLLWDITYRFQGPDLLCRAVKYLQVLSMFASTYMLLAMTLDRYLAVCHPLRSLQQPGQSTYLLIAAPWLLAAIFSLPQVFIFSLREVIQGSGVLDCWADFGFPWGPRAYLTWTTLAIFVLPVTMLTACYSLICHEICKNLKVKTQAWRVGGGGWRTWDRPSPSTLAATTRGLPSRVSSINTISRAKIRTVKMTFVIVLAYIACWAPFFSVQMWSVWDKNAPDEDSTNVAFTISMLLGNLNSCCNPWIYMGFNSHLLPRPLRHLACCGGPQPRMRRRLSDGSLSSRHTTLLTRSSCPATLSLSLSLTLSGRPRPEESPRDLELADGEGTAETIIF
How it was run: as §1

Sequence of human V1a receptor (P37288 whole entry): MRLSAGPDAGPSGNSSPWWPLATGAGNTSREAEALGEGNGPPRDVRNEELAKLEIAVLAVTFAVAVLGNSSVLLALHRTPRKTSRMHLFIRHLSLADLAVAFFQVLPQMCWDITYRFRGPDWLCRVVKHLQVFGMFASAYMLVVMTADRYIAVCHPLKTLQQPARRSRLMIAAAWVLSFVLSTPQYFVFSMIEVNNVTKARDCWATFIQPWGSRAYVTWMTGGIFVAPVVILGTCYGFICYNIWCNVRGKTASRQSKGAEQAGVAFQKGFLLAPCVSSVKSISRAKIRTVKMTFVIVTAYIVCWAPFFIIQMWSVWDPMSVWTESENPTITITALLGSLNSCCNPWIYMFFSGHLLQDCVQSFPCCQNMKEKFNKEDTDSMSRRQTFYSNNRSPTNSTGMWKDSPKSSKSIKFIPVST
Sequence of human V2 receptor (P30518 whole entry): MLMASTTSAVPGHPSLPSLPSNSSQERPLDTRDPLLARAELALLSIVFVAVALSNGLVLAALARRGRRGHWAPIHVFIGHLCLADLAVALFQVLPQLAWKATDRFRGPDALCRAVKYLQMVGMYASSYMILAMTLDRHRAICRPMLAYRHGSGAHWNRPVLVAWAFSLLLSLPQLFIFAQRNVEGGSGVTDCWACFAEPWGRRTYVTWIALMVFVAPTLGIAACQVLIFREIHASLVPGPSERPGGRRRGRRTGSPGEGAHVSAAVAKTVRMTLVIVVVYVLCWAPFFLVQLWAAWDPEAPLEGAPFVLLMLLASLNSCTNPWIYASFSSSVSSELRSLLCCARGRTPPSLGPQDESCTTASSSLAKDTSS

SMILES | inhibition at 1 µM (human V2 receptor) | inhibition at 10 µM (NPY2 receptors) | inhibition at 1 µM (human V1a receptor) | inhibition at 10 µM (human V1b receptor) | IC50 (human V1a receptor) | inhibition at 1 µM (human V1b receptor) | IC50 (human V1b receptor)
COc1ccccc1CNC(=S)N1CCC(n2c(=O)[nH]c3ccccc32)CC1 [Compound 14] | 1% | 18% | 0% | 0% |  |  | 
CN1CCN(CCCn2c(=O)n(C3CCN(C(=S)NC(c4ccccc4)c4ccccc4)CC3)c3ccccc32)CC1 [Compound 78, 1-[(N1-piperidinocarbothioylbiphenylmethylamino)-4-yl]-3-(3-N-(N-Methylpiperazino)propyl)-1,3-dihydrobenzimidazol-2-one] | 17% | 74% | 95% | 41% |  |  | 
O=C(Nc1ccccc1-c1ccccc1)N1CCC(n2c(=O)[nH]c3ccccc32)CC1 [Compound 49] | 0% | 12% | 63% | 18% |  |  | 
O=c1[nH]c2ccccc2n1C1CCN(C(=S)NCCCc2ccccc2)CC1 [Compound 38] | 9% | 7% | 25% | 0% |  |  | 
CCN(CC)CCn1c(=O)n(C2CCN(C(=S)NCc3ccccc3-c3ccccc3)CC2)c2ccccc21 [Compound 90, 1-(N1-Piperidinocarbothioyl-(2-phenylbenzylamino)-4-yl)-3-(2-diethyaminoethyl)benzimidazol-2-one] | 5% | 13% |  |  | 0.062 µM | 27% | 
CN(C)c1ccc(CNC(=S)N2CCC(n3c(=O)[nH]c4ccccc43)CC2)cc1 [Compound 24] | 9% | 12% | 19% | 0% |  |  | 
O=C(NCc1ccccc1F)N1CCC(n2c(=O)n(CCCN3CCCC3)c3ccccc32)CC1 [Compound 89] | 0% | 8% | 34% |  |  | 10% | 
O=C(Nc1ccccc1F)N1CCC(n2c(=O)n(CCCN3CCCCC3)c3ccccc32)CC1 [Compound 114, 1-[(N1-piperidinocarbonyl-2-fluorophenylamino)-4-yl]-3-(3-N-piperidinylpropyl)-1,3-dihydrobenzimidazol-2-one] | 2% | 17% | 1% |  |  | 4% | 
COc1cc(NC(=S)N2CCC(n3c(=O)[nH]c4ccccc43)CC2)cc(OC)c1OC [Compound 6] | 9% | 16% | 20% | 0% |  |  | 
O=c1n(CCCCN2CCCCC2)c2ccccc2n1C1CCN(C(=S)NC(c2ccccc2)c2ccccc2)CC1 [Compound 107] | 12% | 95% |  |  | 0.022 µM | 45% | 
O=C(NCc1ccccc1)N1CCC(n2c(=O)[nH]c3ccccc32)CC1 [Compound 74] | 0% | 0% | 0% | 29% |  |  | 
O=c1[nH]c2ccccc2n1C1CCN(C(=S)NCCN2CCOCC2)CC1 [Compound 26] | 20% | 10% | 33% | 0% |  |  | 
O=C(NC(c1ccccc1)c1ccccc1)N1CCC(n2c(=O)n(CCCN3CCCCC3)c3ccccc32)CC1 [Compound 97, 1-[(N1-piperidinocarbonylbiphenylmethylamino)-4-yl]-3-(3-N-piperidinylpropyl)-1,3-dihydrobenzimidazol-2-one] | 0% | 14% |  |  | 0.034 µM | 35% | 
O=C1c2ccccc2C(=O)N1CCCn1c(=O)n(C2CCN(C(=S)NC(c3ccccc3)c3ccccc3)CC2)c2ccccc21 [Compound 54, 1-[(N1-Piperidinocarbothioyldiphenylmethylamino)-4-yl]-3-(3-N-phthalimidopropyl)-1,3-dihydrobenzimidazol-2-one] | 0% | 4% | 47% | 18% |  |  | 
O=c1[nH]c2ccccc2n1C1CCN(C(=S)NC(c2ccccc2)c2ccc(Cl)cc2)CC1 (stereo not drawn) [Compound 34] | 21% | 22% | 42% | 13% |  |  | 
CN1CCCC1CCn1c(=O)n(C2CCN(C(=O)NC(c3ccccc3)c3ccccc3)CC2)c2ccccc21 (stereo not drawn) [Compound 94] | 8% | 78% | 68% |  |  | 33% | 
CN1CCCC1CCn1c(=O)n(C2CCN(C(=S)NC(c3ccccc3)c3ccccc3)CC2)c2ccccc21 (stereo not drawn) [Compound 93] | 0% | 17% |  |  | 0.049 µM | 48% | 
O=C(O)CCn1c(=O)n(C2CCN(C(=S)NC(c3ccccc3)c3ccccc3)CC2)c2ccccc21 [Compound 61, 1-[(N1-Piperidinocarbothioyldiphenylmethylamino)-4-yl]-3-(2-carboxyethyl)-1,3-dihydrobenzimidazol-2-one] | 0% | 90% | 17% | 22% |  |  | 
O=c1[nH]c2ccccc2n1C1CCN(C(=S)NCc2ccc(Cl)cc2Cl)CC1 [Compound 17] | 14% | 15% | 12% | 7% |  |  | 
O=c1[nH]c2ccccc2n1C1CCN(C(=S)NC(c2ccccc2)(c2ccccc2)c2ccccc2)CC1 [Compound 25, 1-[(N1-Piperidinocarbothioyltriphenylmethylamino)-4-yl]-1,3-dihydro-benzimidazol-2-one] | 0% | 13% | 0% | 0% |  |  | 
CC(=O)NCCNC(=O)C(Cc1ccccc1)NC(=S)N1CCC(n2c(=O)[nH]c3ccccc32)CC1 (stereo not drawn) [Compound 44] | 2% | 9% | 37% | 24% |  |  | 
O=C(NC(c1ccccc1)c1ccccc1)N1CCC(n2c(=O)n(CCCN3CCOCC3)c3ccccc32)CC1 [Compound 95, 1-[(N1-piperidinocarbonylbiphenylmethylamino)-4-yl]-3-(3-morpholinopropyl)-1,3-dihydrobenzimidazol-2-one] | 2% | 0% |  |  | 0.162 µM | 23% | 
COC(=O)C(Cc1ccccc1)NC(=S)N1CCC(n2c(=O)[nH]c3ccccc32)CC1 (stereo not drawn) [Compound 40] | 0% | 17% |  | 11% | 0.19 µM |  | 
CC1CC(C)CN(CCCn2c(=O)n(C3CCN(C(=S)NC(c4ccccc4)c4ccccc4)CC3)c3ccccc32)C1 (stereo not drawn) [Compound 82] | 11% | 91% |  |  | 0.006 µM |  | 0.14 µM
